Converted amounts (≈) assume the structure as drawn. Where two headings read alike, the source gives them in different places.
Key:
[1] = system: HuVEC; test: Action on microtubule function, α-tubulin staining; conditions: 2 μM, thirty minutes exposure
[2] = system: MAP-rich microtubules; test: Microtubule mean length distributions, transmission electron microscopy; type: biochemical, bovine; conditions: in words
Procedure: Transmission electron microscopy was used to determine the mean length distribution of microtubules in the absence or presence of tested agent. At 75 minutes and prior to sedimentation, 10 μl aliquots from the polymer mass experiments were fixed by dilution into 290 μl PEM100-buffered 0.2% glutaraldehyde. Thirty microliters of fixed sample was settled onto formvar-coated 150 ICG mesh electron microscope grids for 90 seconds. Excess sample was wicked off with Whatman filter paper. Thirty microliters of cytochrome C (1 mg/ml) was applied for 30 seconds to enhance protofilament resolution and facilitate negative staining. Uranyl acetate (1.5%) was applied for 20 seconds and the excess was wicked off Grids were viewed in a Jeol electron microscope-1200 EX11 at 2000× and 30,000× magnification. The Zeiss MOPIII was used to determine microtubule length distributions and mean lengths for at least 100 microtubules per sample.

[3] = system: Candida glabrata; test: Antifungal susceptibility testing, broth dilution (MIC/MFC); type: cell-based; conditions: Nakaseomyces glabratus; C. glabrata; read-out: MIC
Procedure: (§1) Specifically, disclosed compounds were evaluated alongside commercially available microtubulin inhibitors as well as recognized antifungal agents.
(§2) Microorganisms against which these compounds were tested included: Candida albicans, Candida glabrata, Aspergillus fumigatus, Trichophyton rubrum, Trichophyton mentagrophytes, Epidermophyton floccosum. With the exception of Candida glabrata (one isolate), two isolates of each species were tested.
(§3) The minimum lethal concentration (MLC) was determined by plating […] from the MIC concentration and each concentration above the MIC. […] When a MIC was obtained, a minimum fungicidal concentration (MFC) was determined to assess the fungistatic/fungicidal nature of the compound.

[4] = system: Candida albicans; test: as above; type: cell-based
Procedure: as §1, §2, §3

[5] = system: Trichophyton mentagrophytes; test: as above; type: cell-based; conditions: Trichophyton mentagrophytes
Procedure: (§4) Specifically, disclosed compounds were evaluated alongside commercially available microtubulin inhibitors as well as recognized antifungal agents. […].
as §2
(§5) Drug concentrations were 0.03-16 μg/ml for the investigational compounds, 0.015-8 μg/ml for itraconazole and griseofulvin.
as §3, with “compound. […] The compound is scored as fungistatic if the cells are able to resume growth and fungicidal if no regrowth is possible because the compound had killed the organisms.” for “compound.”

[6] = system: Epidermophyton floccosum; test: as above; type: cell-based
Procedure: as §4, §2, §5
as §3, with “compound. […] The compound is scored as fungistatic if the cells are able to resume growth and fungicidal if no regrowth is possible because the compound had killed the organisms.” for “compound.”

[7] = system: Trichophyton rubrum; test: as above; type: cell-based; conditions: Trichophyton rubrum
Procedure: as §1, §2, §3

[8] = system: HT-29 cells; test: Additional cytotoxicity assays, resazurin (Table 3.1); type: cell-based, human; conditions: Table 3.1
Procedure: 10× concentrated serial dilutions of the two compounds were prepared in appropriate culture medium for final concentrations ranging from 2.0×10^−5 M to 2.0×10^−10 M. Ten μl volumes of the 10× serial dilutions were added to the test wells in triplicate and the plates returned to the incubator for 48 hours.
(§6) Following 48 hours of drug exposure 10 μl of 0.2 mg/ml resazurin (obtained from Sigma-Aldrich Chemical Co.) in Mg^2+, Ca^2+ free PBS was added to each well and the plates were returned to the incubator for 3-4 hours. […] Resazurin dye without cells was used to determine the background, which was subtracted from the data for all experimental wells. The data were analyzed using Prism software (GraphPad Software).
Additional cytotoxicity assays were performed as described above under this example, using Resazurin fluorescence as an indicator of cell viability.

[9] = system: MES-SA human uterine sarcoma; test: Cell growth inhibition assay, resazurin (Example 11); type: cell-based; conditions: mean ± standard deviation of three independent experiments
Procedure: (§7) Human uterine sarcoma (MES-SA; CRL-1976), its multidrug resistant derivative (MES-SA/Dx5; CRL-1977), human acute promyelocytic leukemia cells (HL-60; CCL-240) and its multidrug resistant derivative (HL-60/MX2; CRL-2257) were purchased from ATCC and maintained in appropriate culture media. The cells were cultured in an incubator at 37° C. in 5% CO2 and 95% humidified air.
(§8) For cell growth inhibition assays, MES-SA and MES-SA/Dx5 cells were both seeded at 3×10^3 cells/well in 90 μl complete media into 96 well (Corning; 3904) black-walled, clear-bottom tissue culture plates and the plates were incubated overnight to allow cells to establish and enter log phase growth. HL-60 and HL-60/MX2 cells were both seeded at 5×10^4 cells/well in 90 μl complete media into 96 well plates on the day of compound addition. 20 mM stock solutions of the compounds were prepared in 100% DMSO and stored at −80° C. […] Ten μl volumes of the 10× serial dilutions were added to the test wells in triplicate and the plates returned to the incubator for 48 hours. The final concentration of DMSO was 0.25% in all samples.
as §6, with “exposure,” for “exposure”, “phosphate buffered saline” for “PBS”, “3-6” for “3-4”, “dye in medium” for “dye”, “wells.” for “wells. The data were analyzed using Prism software (GraphPad Software).”
(§9) The multidrug resistant MES-SA/Dx5 tumor cell line was derived from the human uterine sarcoma MES-SA tumor cell line and expresses elevated P-Glycoprotein (P-gp), an ATP dependent efflux pump. The data in Table 19 summarize the growth inhibitory effects of NPI-2421, NPI-2463, NPI-2503, NPI-2504 and NPI-2506 against MES-SA and its multidrug resistant derivative MES-SA/Dx5. Paclitaxel, a known substrate of the P-gp pump was included as a control.

[10] = system: HL-60/MX2 multidrug resistant; test: as above; type: cell-based, human
Procedure: as §7, §8
as §6, with “exposure,” for “exposure”, “phosphate buffered saline” for “PBS”, “3-6” for “3-4”, “dye in medium” for “dye”, “wells.” for “wells. The data were analyzed using Prism software (GraphPad Software).”
(§10) HL-60/MX2 is a multidrug resistant tumor cell line derived from the human promyelocytic leukemia cell line, HL-60 and expresses reduced topoisomerase II activity. The data presented in Table 20 summarize the growth inhibitory effects of NPI-2421, NPI-2463, NPI-2503, NPI-2504 and NPI-2506 against HL-60 and its multidrug resistant derivative HL-60/MX2. Mitoxantrone, the topoisomerase II targeting agent was included as a control.

[11] = system: HT-29 human colorectal carcinoma cells; test: Cell growth inhibition assay, resazurin (Table 3.2); type: cell-based; conditions: Table 3.2, HT-29 cells, read-out: EC50 (M) Mean
Method in brief: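 HT-29 cells seeded at 5×10^3/well overnight, then exposed in triplicate to compounds at final 20 μM to […] (0.25% DMSO) for 48 h at 37° C. Viability read by resazurin reduction after 3-4 h further incubation, with cell-free dye background subtracted.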

[12] = system: MES-SA/Dx5 multidrug resistant; test: Cell growth inhibition assay, resazurin (Example 11); type: cell-based, human
Procedure: as §7, §8
as §6, with “exposure,” for “exposure”, “phosphate buffered saline” for “PBS”, “3-6” for “3-4”, “dye in medium” for “dye”, “wells.” for “wells. The data were analyzed using Prism software (GraphPad Software).”
as §9

[13] = system: MDA-MB-231 breast adenocarcinoma; test: as above; type: cell-based; conditions: Homo sapiens, 48 hours, mean ± SD where n ≧ 3
Procedure: (§11) The growth inhibitory activity of NPI-2421, NPI-2463, NPI-2503 and NPI-2504 were determined against selected human (colorectal adenocarcinoma, HT-29; breast adenocarcinoma, MDA-MB-231; non-small cell lung carcinoma, NCI-H292 and prostate carcinomas, PC-3 and DU 145) and mouse (melanoma, B16-F10) tumor cell lines.
(§12) HT-29 (HTB-38), MDA-MB-231 (HTB-26), NCI-H292 (CRL-1848), B16-F10 (CRL-6475), PC-3 (CRL-1435) and DU 145 (HTB-81) cells were all purchased from the ATCC. The cell lines were maintained in their respective ATCC recommended culture media and cultured in an incubator at 37° C. in 5% CO2 and 95% humidified air.
(§13) 20 mM stock solutions of compounds were prepared in 100% DMSO and stored at −80° C. 10× concentrated serial dilutions of the compounds were prepared in B16-F10 cell culture medium for final concentrations ranging from 20 μM to […]. Ten μl volumes of the 10× serial dilutions were added to the test wells in triplicate and the plates returned to the incubator for 48 hours. The final concentration of DMSO was 0.25% in all samples.
as §6, with “exposure,” for “exposure”, “phosphate buffered saline” for “PBS”, “3-6” for “3-4”, “dye in medium” for “dye”, “wells.” for “wells. The data were analyzed using Prism software (GraphPad Software).”

[14] = system: B16-F10 melanoma; test: as above; type: cell-based; conditions: Mus musculus, 48 hours, mean ± SD where n ≧ 3
Procedure: as §11, §12, §13
as §6, with “exposure,” for “exposure”, “phosphate buffered saline” for “PBS”, “3-6” for “3-4”, “dye in medium” for “dye”, “wells.” for “wells. The data were analyzed using Prism software (GraphPad Software).”

[15] = system: PC-3 prostate carcinoma; test: as above; type: cell-based; conditions: Homo sapiens, 48 hours, mean ± SD where n ≧ 3, ** n = 1
Procedure: as §11, §12, §13
as §6, with “exposure,” for “exposure”, “phosphate buffered saline” for “PBS”, “3-6” for “3-4”, “dye in medium” for “dye”, “wells.” for “wells. The data were analyzed using Prism software (GraphPad Software).”

[16] = system: HT-29 colorectal adenocarcinoma; test: as above; type: cell-based; conditions: Homo sapiens, 48 hours, mean ± SD where n ≧ 3
Procedure: as §11, §12, §13
as §6, with “exposure,” for “exposure”, “phosphate buffered saline” for “PBS”, “3-6” for “3-4”, “dye in medium” for “dye”, “wells.” for “wells. The data were analyzed using Prism software (GraphPad Software).”

[17] = system: NCI-H292 non-small cell lung carcinoma; test: as above; type: cell-based; conditions: Homo sapiens, 48 hours, mean ± SD where n ≧ 3, ** n = 1
Procedure: as §11, §12, §13
as §6, with “exposure,” for “exposure”, “phosphate buffered saline” for “PBS”, “3-6” for “3-4”, “dye in medium” for “dye”, “wells.” for “wells. The data were analyzed using Prism software (GraphPad Software).”

[18] = system: HL-60 human acute promyelocytic leukemia cells; test: as above; type: cell-based; conditions: mean values of two independent experiments
Procedure: as §7, §8
as §6, with “exposure,” for “exposure”, “phosphate buffered saline” for “PBS”, “3-6” for “3-4”, “dye in medium” for “dye”, “wells.” for “wells. The data were analyzed using Prism software (GraphPad Software).”
as §10

With `COc1cc2c(c(OC)c1OC)-c1ccc(OC)c(=O)cc1[C@@H](NC(C)=O)CC2` [Colchicine] the “microtubule depolymerization in HuVEC cells” value [1] was “induced microtubule depolymerization”, the MT nucleation [2] was “did not affect MT nucleation” and the MIC [3] was greater than 128 µg/mL. It also gave an MIC ([4]; C. albicans 10231) greater than 128 µg/mL and an MIC ([4]; Candida albicans, C. albicans 90028, read-out: MIC) greater than 128 µg/mL.
In the case of `CC(C)(C)c1[nH]cnc1/C=C1\NC(=O)[C@H](Cc2ccccc2)NC1=O` [Compound 2460, (−)-tBu-PLH], the MFC ([5]; T. mentagrophytes isolate #1) is reported as greater than 16 µg/mL, the MIC ([5]; T. mentagrophytes isolate #1) is reported as 4 µg/mL (≈ 11.8 µM) and the MIC ([5]; T. mentagrophytes isolate #2) is reported as greater than 16 µg/mL. The MIC ([6]; E. floccosum isolate #1) was greater than 16 µg/mL, the MIC ([6]; E. floccosum isolate #2) was greater than 16 µg/mL and the MFC ([7]; T. rubrum isolate #1) was 0.125 µg/mL (≈ 0.369 µM). For the same compound, the MIC ([7]; T. rubrum isolate #1) was less than 0.03 µg/mL, the MFC ([7]; T. rubrum isolate #2) was less than 0.03 µg/mL and the MIC ([7]; T. rubrum isolate #2) was less than 0.03 µg/mL. For the same compound, the EC50 ([8]; Homo sapiens, HT-29, read-out: EC50 (M) Mean) was 2.55e-07 M and the “% cytotox Mean” value [8] was 87%.
In the case of `CC(C)(C)c1ocnc1/C=c1\[nH]c(=O)/c(=C/c2cc(F)cc(F)c2F)[nH]c1=O` [Compound 2503, tBu-oxadelta-PLH-2,3,5-trifluoro], the EC50 [9] is reported as 13 ± 3 nM, the EC50 ([10]; Homo sapiens, HL60/MX2, HL-60/MX2, mean values of two independent experiments) is reported as 19 nM and the “cytotoxic activity against both HL-60 and HL-60/MX2” value ([10]; in words) is reported as “retained cytotoxic activity”. The Fold change ([10]; ratio of EC50 values (HL-60/MX2:HL-60)) was 0.7, the EC50 [11] was 1.14e-08 M and the EC50 ([12]; Homo sapiens, MES-SA/Dx5, mean ± standard deviation of three independent experiments) was 13 ± 3 nM. For the same compound, the “cytotoxic activity against both MES-SA and MES-SA/Dx5” value ([12]; in words) was “retained equivalent cytotoxic activity”, the Fold change ([12]; ratio of EC50 values (MES-SA/Dx5:MES-SA)) was 1.0 and the EC50 [13] was 21 nM. For the same compound, the EC50 [14] was 16 ± 2 nM, the EC50 [15] was greater than 2000 nM and the EC50 [16] was 17 nM. For the same compound, the EC50 [17] was 52 nM and the EC50 [18] was 28 nM.

Source: patent US8129527B2, “Analogs of dehydrophenylahistins and their therapeutic use” (Nereus Pharmacuticals, Inc., priority 2006, dated 2012)
